The values below come from ChEMBL document CHEMBL1275415, “The antimicrobial peptide NK-2, the core region of mammalian NK-lysin, kills intraerythrocytic Plasmodium falciparum” (Antimicrob Agents Chemother, 2008).

The source made the active and inactive calls. No cut-off for these calls is given here.

The test system of data set [1] is Plasmodium falciparum. The experiment in a line: Antiplasmodial activity against Plasmodium falciparum 3D7 infected in human RBC assessed as permeabilization of plasma membrane at 5 uM after 20 to 120 min by sytox green dye uptake assay. In kind it is functional, organism-based.
Data set [2] in a line: Cytotoxicity against human RBC assessed as induction of hemolysis at 5 to 20 uM after 2 hrs by spectrophotometry. It is filed as cell-based. The following applies: erythrocyte.
Data set [3] deals with Plasmodium falciparum. The experiment in a line: Antiplasmodial activity against Plasmodium falciparum 3D7 infected in human RBC assessed as appearance of hemozoin crystals at 10 uM after 1 hrs by light microscopy. It is filed as functional, organism-based.
The test system of data set [4] is Plasmodium falciparum. The experiment in a line: Antiplasmodial activity against Plasmodium falciparum 3D7 trophozoites infected in human RBC assessed as induction of hemolysis at 10 uM after 90 min by spectrophotometry. It is filed as functional, organism-based.
In data set [5] the test system is Plasmodium falciparum. Briefly: Antiplasmodial activity against Plasmodium falciparum 3D7 trophozoite infected in human RBC assessed as partial induction of hemolysis at 0.1 to 100 uM after 1 hrs by spectrophotometry in presence of 100 ug/ml annexin V and calcium. In kind it is functional, organism-based.
Data set [6] deals with Plasmodium falciparum. Briefly: Antiplasmodial activity against Plasmodium falciparum 3D7 schizonts infected in human RBC assessed as induction of hemolysis at 5 to 20 uM after 2 hrs by spectrophotometry. In kind it is functional, organism-based.
Data set [7] deals with Plasmodium falciparum. The experiment in a line: Antiplasmodial activity against Plasmodium falciparum 3D7 infected in human RBC assessed as permeabilization of plasma membrane at 10 uM after 20 to 120 min by sytox green dye uptake assay. In kind it is functional, organism-based.
Data set [8] has as its system Plasmodium falciparum. The experiment in a line: Antiplasmodial activity against Plasmodium falciparum 3D7 trophozoites infected in human RBC assessed as induction of hemolysis at 5 to 20 uM after 2 hrs by spectrophotometry. It is filed as functional, organism-based.
Data set [9] relates to Plasmodium falciparum. Briefly: Antiplasmodial activity against Plasmodium falciparum 3D7 assessed as reduction in parasite viability at 6.2 uM after 45 hrs by fluorospectrometry. The following applies: 3D7, 45 h. In kind it is functional.
For data set [10], the system named is Plasmodium falciparum. The experiment in a line: Antiplasmodial activity against Plasmodium falciparum 3D7 trophozoite infected in human RBC assessed as partial induction of hemolysis at 0.1 to 100 uM after 1 hrs by spectrophotometry in presence of > 100 ug/ml annexin V and calcium. In kind it is functional, organism-based.
The test system of data set [11] is Plasmodium falciparum. Briefly: Antiplasmodial activity against Plasmodium falciparum 3D7 infected in human RBC assessed as permeabilization of plasma membrane at > 20 uM after 20 to 120 min by sytox green dye uptake assay. It is filed as functional, organism-based.
Data set [12] deals with Plasmodium falciparum. Briefly: Antiplasmodial activity against Plasmodium falciparum 3D7 assessed as reduction in parasite viability after 45 hrs by fluorospectrometry. In kind it is functional, organism-based.

Turning to H-KILRGVCKKIMRTFLRRISKDILTGKK-OH, the result in the data set with Plasmodium falciparum [1], with Plasmodium falciparum [3], in the data set on Plasmodium falciparum [4], in the data set with Plasmodium falciparum [5], with Plasmodium falciparum [6] and with Plasmodium falciparum [7] was Active. In the data set with Plasmodium falciparum [8], the result was Active. In [2], the Activity result is listed as “Non-toxic”. Besides, in the data set on Plasmodium falciparum [9], the inhibition at 6.2 µM amounted to 50%. Also, the result with Plasmodium falciparum [10] and in the data set with Plasmodium falciparum [11] was inactive. Further, the inhibition result in the data set on Plasmodium falciparum [12] is “Dose-dependent effect”.

In general, inhibition refers to the relative decrease from the control value, in per cent.
